According to ChEMBL document CHEMBL1145787, “Synthesis and structure-activity relationship of N-substituted 4-arylsulfonylpiperidine-4-hydroxamic acids as novel, orally active matrix metalloproteinase inhibitors for the treatment of osteoarthritis” (J Med Chem, 2003):

Key:
[1] = In vivo inhibition of Matrix metalloprotease enzyme by Sponge-wrapped cartilage assay, value is relative to activity of RS-130830 (39+/-2) at 10 mg/kg. po. bid; format: functional
[2] = In vivo inhibitory activity against Matrix metalloprotease enzyme by dialysis implant assay, value is relative to activity of CGS-27023 (65+/-2) at 25 mg/kg. po; format: functional
[3] = target: Collagenase 3 (Homo sapiens, UniProt P45452)

CN1CCC(C(=O)NO)(S(=O)(=O)c2ccc(Oc3ccc(Cl)cc3)cc2)CC1
inhibition in vivo at 10 mg/kg [1]: 73% | inhibition in vivo at 25 mg/kg [2]: 91% | IC50 [3]: 2 nM
